For assay [1], the target named is hDAAO (human DAAO) (Homo sapiens (Human), UniProt P14920). Briefly: hDAAO (human DAAO) activity, D-serine substrate, Amplex Red fluorescence. Format: biochemical. As to the method: The hDAAO (human DAAO) activity was measured by using D-serine as a substrate to produce H2O2. The produced H2O2 would be oxidized by peroxidase, and the produced free radicals would further react with Amplex Red reagent to emit fluorescence. The intensity of fluorescence at 590 nm would be measured to represent the activity of hDAAO. All compounds were dissolved in DMSO. Each compound was diluted with DMSO in 3-fold serial dilution to create a 9-point dose response curve. Each sample was added in triplicate, 1 μL/well, into 96-well black plates. Positive control wells were added with 1 μL of DMSO. Then 49 μL of assay buffer (100 mM Tris-HCl, pH 8.5) containing 1.2 ng/mL hDAAO, 900 nM FAD, 0.2 units/mL HRP, and 100 μM Amplex Red was added to each well of the plate using a multichannel pipette. Next, 50 μL of 100 mM D-Serine in assay buffer was added. The reaction plates were then incubated in the dark at room temperature. The fluorescence readout was detected at 0 and 20 minute by Molecular Device Gemini EM fluorescence reader using the following settings: excitation filter 530 nm, and emission filter 590 nm. The percentage of inhibition values for each well was calculated with the following equation: The percentage of inhibition=(fluorescencesample, 20 min−fluorescencesample, 0 min)/(fluorescenceDMSO, 20 min−fluorescenceDMSO, 0 min)×100%
Sequence of hDAAO (human DAAO) (P14920 whole entry): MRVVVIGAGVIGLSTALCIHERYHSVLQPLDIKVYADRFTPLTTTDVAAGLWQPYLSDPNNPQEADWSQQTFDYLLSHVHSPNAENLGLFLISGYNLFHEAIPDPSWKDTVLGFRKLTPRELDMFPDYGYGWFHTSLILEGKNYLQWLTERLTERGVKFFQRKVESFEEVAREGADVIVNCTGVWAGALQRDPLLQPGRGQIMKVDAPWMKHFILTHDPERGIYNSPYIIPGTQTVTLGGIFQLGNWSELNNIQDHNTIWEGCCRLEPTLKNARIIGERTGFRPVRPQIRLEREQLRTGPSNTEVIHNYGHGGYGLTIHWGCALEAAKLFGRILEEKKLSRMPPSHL
The nonlinear curve fitting model in GraphPad Prism 5 was used to calculate IC50 value for each compound.

The test system of assay [2] is mice. Briefly: Spontaneous locomotion in open field. It is filed as in vivo. To be noted: oral, 446 and 892 mg/kg, 120 minutes observation. As to the method: The mice were group housed (3-5 mice per cage) with food and water available ad libitum in polysulfone ventilated cages (Alternative Design, AR, USA) in the animal rooms of SyneuRx International (Taiwan) Corp. The colony was maintained on a 12/12-hr light/dark cycle at the temperature of 22±2° C. and all behavioral studies were performed during the dark cycle. All animals used in this study were adult mice (at least 2.5 months of age). All animal procedures were performed according to the protocols approved by Institutional Animal Care and Use Committee (IACUC).
The compound of Example 1 was placed into 100% PEG400, and was sonic vibrated until solution became clear. […]
Mice that received oral administration of either vehicle or low/high dose of the compound of Example 1 was immediately subjected to open field test and the index of spontaneous locomotion was expressed as total travel distance measured within the defined time frame.
(§1) The mice were placed in a Plexiglas cage (37.5 cm×21.5 cm×18 cm) under 50-65 lux light intensity, the spontaneous locomotion was measured for 120 minutes using the EthoVision video tracking system (Noldus Information Technology, the Netherlands). The travel distance of each mouse was measured as an index of spontaneous locomotion.

The test system of assay [3] is MK801-treated mice. Briefly: Open field task, MK801-induced hyper-locomotion. To be noted: Example 1 446 or 892 mg/kg orally 20 min prior to MK801 0.1 mg/kg i.p.; 120 minutes testing period. Format: in vivo. As to the method:
as §1
(§2) The mice were group housed (3-5 mice per cage) with food and water available ad libitum in polysulfone ventilated cages (Alternative Design, AR, USA) in the animal rooms of the SyneuRx International (Taiwan) Corp. The colony was maintained on a 12/12-hr light/dark cycle at the temperature of 22±2° C. and all behavioral studies were performed during dark cycle. All animals used in this study were adult mice (at least 2.5 months of age). All animal procedures were performed according to the protocols approved by the Institutional Animal Care and Use Committee (IACUC). […]
(§3) All mice in the experiments were tested by open field task and pre-pulse inhibition with at least 1-week interval between two tasks. […] The percentage of pre-pulse inhibition was calculated by the following formula: % PPI=100×[(PA score)−(pp-P score)]/(PA score), where the PA score was the average of the PA value in the middle blocks. […]

The subject of assay [4] is MK801-treated mice. The assay can be described thus: Pre-pulse inhibition (PPI) test, MK801-induced deficit of sensorimotor gating. Format: in vivo. To be noted: Example 1 446 or 892 mg/kg orally 20 min prior to MK801 0.2 mg/kg i.p.; each pre-pulse intensity. How it is done:
as §2, with “(IACUC). The mice were randomly assigned into four groups, Group 1: vehicle control, Group 2: MK801, Group 3: Example 1 at 446 mg/kg+MK801, Group 4: Example 1 at 892 mg/kg+MK801.” for “(IACUC).”
as §3

Entries after “also recorded” stand apart in the source; their conditions may differ.

For orientation: IC50 means the midpoint of a concentration-inhibition curve. For `O=C(Oc1coc(CO)cc1=O)c1ccc[nH]1` [Compound 1, 6-(hydroxymethyl)-4-oxo-4H-pyran-3-yl 1H-pyrrole-2-carboxylate], the IC50 in assay [1] is 100 to 500 µM. In addition, in assay [2], the “spontaneous locomotion (total travel distance) versus vehicle” value is “no significant difference between groups”. The “locomotion activity in open field task compared to control group” value in assay [3] is given as “equal level of locomotion activity as mice in the control group; also recorded: reversed/protected MK801-induced hyper-locomotion activity”. For the same compound, in assay [4], the “percentage of pre-pulse inhibition compared to control group” value is recorded as “the same level of pre-pulse inhibition percentage; also recorded: rescued/protected the MK801-induced PPI deficits”.
In the case of `C[C@]12N[C@H](Cc3ccccc31)c1ccccc12` [MK801, reference compound], in assay [3], the “locomotion activity in open field task compared to control group” value was “displayed hyper-locomotion”. The “percentage of pre-pulse inhibition compared to control group” value in assay [4] is reported as “lower percentage of pre-pulse inhibition”.

Values taken from patent US10336724B2, “D-amino acid oxidase inhibitors and therapeutic uses thereof” (SyneuRx International (Taiwan) Corp., priority 2017, dated 2019).
